From ChEMBL document CHEMBL5316357, “Discovery of Linvencorvir (RG7907), a Hepatitis B Virus Core Protein Allosteric Modulator, for the Treatment of Chronic HBV Infection” (J Med Chem, 2023)

Tests used:
[1] = Tmax in male minipig at 30 mg/kg,po by LC-MS/MS analysis; type: ADME, organism-based, Sus scrofa domesticus; details: pig, in vivo
[2] = Cmax in female Wistar Han rat at 3 mg/kg,po by LC-MS/MS analysis; type: ADME, organism-based; parameters: dose 3 mg/kg, route po; details: in vivo
[3] = Half life in mouse plasma at 1 mg/kg,iv; type: ADME, organism-based
[4] = Half life in cynomolgus monkey at 2 mg/kg,iv by LC-MS/MS analysis; type: ADME, organism-based, Macaca fascicularis; details: in vivo
[5] = AUClast in male Wistar Han rat at 10 mg/kg,po by LC-MS/MS analysis; type: ADME, organism-based; parameters: dose 10 mg/kg, route po; details: in vivo
[6] = Cmax in male minipig at 10 mg/kg,po by LC-MS/MS analysis; type: ADME, organism-based, Sus scrofa domesticus; parameters: dose 10 mg/kg, route po; details: pig, in vivo
[7] = AUClast in male cynomolgus monkey at 30 mg/kg,po by LC-MS/MS analysis; type: ADME, organism-based, Macaca fascicularis; parameters: dose 30 mg/kg, route po; details: in vivo
[8] = Oral bioavailability in male cynomolgus monkey at 3 mg/kg by LC-MS/MS analysis; type: ADME, organism-based, Macaca fascicularis; details: in vivo
[9] = Tmax in male cynomolgus monkey at 30 mg/kg,po by LC-MS/MS analysis; type: ADME, organism-based, Macaca fascicularis; details: in vivo
[10] = Half life in male minipig at 3 mg/kg,po by LC-MS/MS analysis; type: ADME, organism-based, Sus scrofa domesticus; details: pig, in vivo
[11] = Clearance in rat hepatocyte at 2 uM measured upto 120 mins by LC-MS/MS analysis; type: ADME, cell-based; details: hepatocytes
[12] = AUClast in male cynomolgus monkey at 3 mg/kg,po by LC-MS/MS analysis; type: ADME, organism-based, Macaca fascicularis; parameters: dose 3 mg/kg, route po; details: in vivo
[13] = Oral bioavailability in female Wistar Han rat at 3 mg/kg by LC-MS/MS analysis; type: ADME, organism-based; details: in vivo
[14] = Cmax in male Wistar Han rat at 30 mg/kg,po by LC-MS/MS analysis; type: ADME, organism-based; parameters: dose 30 mg/kg, route po; details: in vivo
[15] = Oral bioavailability in male Wistar Han rat at 10 mg/kg by LC-MS/MS analysis; type: ADME, organism-based; details: in vivo
[16] = AUC (0-infinity) in mouse liver at 3 mg/kg,po; type: ADME, organism-based; parameters: dose 3 mg/kg, route po

- Tmax [1]: 2 h
- Cmax [2]: 80.4 ng/mL
- half-life [3]: 0.9 h
- half-life [4]: 1.77 h
- AUC(0-t) [5]: 1440 ng·h/mL
- Cmax [6]: 248 ng/mL
- AUC(0-t) [7]: 7120 ng·h/mL
- bioavailability [8]: 10.3%
- Tmax [9]: 2 h
- half-life [10]: 9.69 h
- CLhep predicted at 2 µM [11]: 11 mL/min/kg
- AUC(0-t) [12]: 280 ng·h/mL
- bioavailability [13]: 14.3%
- Cmax [14]: 1350 ng/mL
- bioavailability [15]: 26.2%
- AUC(0-inf) [16]: 8850 ng·h/mL
SMILES: CCOC(=O)C1=C(CN2CCN3C(=O)N(CC(C)(C)C(=O)O)C[C@@H]3C2)NC(c2nccs2)=N[C@H]1c1cccc(F)c1C [LINVENCORVIR]
